The test has as its target T1, human HSL (Homo sapiens, UniProt Q05469).
T1 construct: generate a full length human HSL ORF with a 3′-His6 tag; made in house; host or cells: High 5 insect cells (baculovirus, pFast-BAC)
T1 sequence (Q05469 1-1076): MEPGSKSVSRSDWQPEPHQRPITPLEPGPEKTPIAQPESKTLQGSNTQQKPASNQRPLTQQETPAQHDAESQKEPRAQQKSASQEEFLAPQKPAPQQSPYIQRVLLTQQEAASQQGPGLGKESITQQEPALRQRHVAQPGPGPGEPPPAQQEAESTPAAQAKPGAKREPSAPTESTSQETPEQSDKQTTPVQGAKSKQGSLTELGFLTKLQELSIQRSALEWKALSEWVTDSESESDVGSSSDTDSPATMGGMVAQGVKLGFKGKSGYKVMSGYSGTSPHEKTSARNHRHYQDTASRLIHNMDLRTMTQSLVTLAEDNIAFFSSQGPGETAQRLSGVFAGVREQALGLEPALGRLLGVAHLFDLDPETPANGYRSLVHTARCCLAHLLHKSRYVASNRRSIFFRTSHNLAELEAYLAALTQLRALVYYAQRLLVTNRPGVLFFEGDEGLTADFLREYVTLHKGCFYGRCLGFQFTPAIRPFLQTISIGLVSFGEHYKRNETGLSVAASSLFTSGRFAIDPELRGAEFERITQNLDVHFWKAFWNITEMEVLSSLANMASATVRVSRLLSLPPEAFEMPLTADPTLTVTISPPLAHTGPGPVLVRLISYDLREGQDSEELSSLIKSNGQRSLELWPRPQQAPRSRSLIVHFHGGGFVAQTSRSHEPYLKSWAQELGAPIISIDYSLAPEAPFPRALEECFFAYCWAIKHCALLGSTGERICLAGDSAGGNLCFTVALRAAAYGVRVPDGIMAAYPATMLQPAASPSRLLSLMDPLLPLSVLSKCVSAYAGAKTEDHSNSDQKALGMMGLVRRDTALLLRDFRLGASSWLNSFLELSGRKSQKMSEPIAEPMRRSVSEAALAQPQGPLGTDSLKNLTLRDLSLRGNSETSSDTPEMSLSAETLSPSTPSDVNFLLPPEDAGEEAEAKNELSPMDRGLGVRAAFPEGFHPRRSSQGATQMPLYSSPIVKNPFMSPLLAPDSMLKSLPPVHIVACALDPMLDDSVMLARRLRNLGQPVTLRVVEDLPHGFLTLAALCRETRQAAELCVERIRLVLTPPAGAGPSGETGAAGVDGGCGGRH
Briefly: Human Hormone-Sensitive Lipase (HSL) enzyme inhibition assay (colorimetric, DMPT substrate). The format is biochemical. As to conditions: human full length HSL-His6, 2,3-dimercapto-1-propanol tributyrate substrate, 37° C. 20 minutes, absorbance at 405 nm; read-out: HSL hum IC50. The method in brief: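 Full-length human HSL with C-terminal His6, expressed in baculovirus-infected High 5 cells and Ni-NTA purified, was added (15 ug/ml stock) to 1.5 mM DMPT in 100 mM MOPS pH 7.2, 0.2 mg/ml fatty acid-free BSA containing compound. After 20 min at 37 °C, DTNB with SDS/Triton X-100 was added; A405 read after 15 min at RT.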

Consider `CCCOC[C@]1(O)CC[C@@]2(CCN(c3ccc(OCC(F)(F)F)nc3)C2=O)CC1` [Example 266, (5α,8β)-8-Hydroxy-8-propoxymethyl-2-[6-(2,2,2-trifluoro-ethoxy)-pyridin-3-yl]-2-aza-spiro[4.5]decan-1-one], for which the IC50 (usually the midpoint of a concentration-inhibition curve) is 370 nM.
As for `CCCOC[C@]1(O)CC[C@]2(CCN(c3ccc(OCC(F)(F)F)nc3)C2=O)CC1` [Example 267, (5α,8α)-8-Hydroxy-8-propoxymethyl-2-[6-(2,2,2-trifluoro-ethoxy)-pyridin-3-yl]-2-aza-spiro[4.5]decan-1-one], the IC50 is 30 nM.
`CCCOC[C@]1(O)CC[C@]2(CCN(c3ccc(O[C@@H](C)C(F)(F)F)nc3)C2=O)CC1` [Example 268, (5α,8α)-8-Hydroxy-8-propoxymethyl-2-[6-((S)-2,2,2-trifluoro-1-methyl-ethoxy)-pyridin-3-yl]-2-aza-spiro[4.5]decan-1-one]: the IC50 worked out at 20 nM.
As to `CCCOC[C@]1(O)CC[C@]2(CCN(c3ccc(O[C@@H](C)C(F)(F)F)cc3)C2=O)CC1` [Example 269, (5α,8α)-8-Hydroxy-8-propoxymethyl-2-[4-((S)-2,2,2-trifluoro-1-methyl-ethoxy)-phenyl]-2-aza-spiro[4.5]decan-1-one], the IC50 stood at 10 nM.
Consider `CCCOC[C@]1(O)CC[C@]2(CCN(c3ccc(O[C@H](C)C(F)(F)F)cc3)C2=O)CC1` [Example 270, (5α,8α)-8-Hydroxy-8-propoxymethyl-2-[4-((R)-2,2,2-trifluoro-1-methyl-ethoxy)-phenyl]-2-aza-spiro[4.5]decan-1-one], for which the IC50 came out at 10 nM.
For the compound `CCOC[C@]1(O)CC[C@]2(CCN(c3ccc(C4CC4)cc3)C2=O)CC1` [Example 271, (5α,8α)-2-(4-Cyclopropyl-phenyl)-8-ethoxymethyl-8-hydroxy-2-aza-spiro[4.5]decan-1-one], the IC50 stood at 30 nM.
For `CCCOC[C@]1(O)CC[C@]2(CCN(c3ccc(C4CC4)cc3)C2=O)CC1` [Example 272, (5α,8α)-2-(4-Cyclopropyl-phenyl)-8-hydroxy-8-propoxymethyl-2-aza-spiro[4.5]decan-1-one], the IC50 came to 20 nM.
Turning to `O=C1N(c2ccc(OCC(F)(F)F)cc2)CC[C@]12CC[C@@](O)(COCC1CCCC1)CC2` [Example 273, (5α,8α)-8-[(Cyclopentylmethoxy)methyl]-8-hydroxy-2-[4-(2,2,2-trifluoro-ethoxy)-phenyl]-2-aza-spiro[4.5]decan-1-one], the IC50 was 20 nM.
For `CC(C)(C)COC[C@]1(O)CC[C@]2(CCN(c3ccc(OCC(F)(F)F)cc3)C2=O)CC1` [Example 274, (5α,8α)-8-(2,2-Dimethyl-propoxymethyl)-8-hydroxy-2-[4-(2,2,2-trifluoro-ethoxy)-phenyl]-2-aza-spiro[4.5]decan-1-one], the IC50 was found to be 20 nM.
As for `CCS(=O)(=O)C[C@]1(O)CC[C@]2(CCN(c3ccc(OCC(F)(F)F)cc3)C2=O)CC1` [Example 275, (5α,8α)-8-Ethanesulfonylmethyl-8-hydroxy-2-[4-(2,2,2-trifluoro-ethoxy)-phenyl]-2-aza-spiro[4.5]decan-1-one], the IC50 was determined as 80 nM.
As to `CC(C)OC[C@]1(O)CC[C@]2(CCN(c3ccc(OCC(F)(F)F)cc3)C2=O)CC1` [Example 276, (5α,8α)-8-Hydroxy-8-isopropoxymethyl-2-[4-(2,2,2-trifluoro-ethoxy)-phenyl]-2-aza-spiro[4.5]decan-1-one], the IC50 came out at 10 nM.
Turning to `O=C1N(c2ccc(OCC(F)(F)F)cc2)CC[C@]12CC[C@@](O)(COCCC(F)(F)F)CC2` [Example 277, (5α,8α)-8-Hydroxy-2-[4-(2,2,2-trifluoro-ethoxy)-phenyl]-8-(3,3,3-trifluoro-propoxymethyl)-2-aza-spiro[4.5]decan-1-one], the IC50 turned out to be 40 nM.
The result for `O=C1N(c2ccc(OCC(F)(F)F)cc2)CC[C@]12CC[C@](O)(COc1ccccn1)CC2` [Example 278, (5α,8β)-8-Hydroxy-8-(pyridin-2-yloxymethyl)-2-[4-(2,2,2-trifluoro-ethoxy)-phenyl]-2-aza-spiro[4.5]decan-1-one] reads 20 nM; that for `O=C1N(c2ccc(OCC(F)(F)F)nc2)CC[C@]12CC[C@@](O)(COCC(F)(F)F)CC2` [Example 279, (5α,8α)-8-Hydroxy-8-(2,2,2-trifluoro-ethoxymethyl)-2-[6-(2,2,2-trifluoro-ethoxy)-pyridin-3-yl]-2-aza-spiro[4.5]decan-1-one], 20 nM.
With `C[C@H](Oc1ccc(N2CC[C@]3(CC[C@](O)(COCC(F)(F)F)CC3)C2=O)cn1)C(F)(F)F` [Example 280, (5α,8β)-8-Hydroxy-8-(2,2,2-trifluoro-ethoxymethyl)-2-[6-((S)-2,2,2-trifluoro-1-methyl-ethoxy)-pyridin-3-yl]-2-aza-spiro[4.5]decan-1-one], the IC50 was 980 nM.
The result for `C[C@H](Oc1ccc(N2CC[C@]3(CC[C@@](O)(COCC(F)(F)F)CC3)C2=O)cn1)C(F)(F)F` [Example 281, (5α,8α)-8-Hydroxy-8-(2,2,2-trifluoro-ethoxymethyl)-2-[6-((S)-2,2,2-trifluoro-1-methyl-ethoxy)-pyridin-3-yl]-2-aza-spiro[4.5]decan-1-one] reads 10 nM; that for `C[C@H](Oc1ccc(N2CC[C@]3(CC[C@](O)(COCC(F)(F)F)CC3)C2=O)cc1)C(F)(F)F` [Example 282, (5α,8β)-8-Hydroxy-8-(2,2,2-trifluoro-ethoxymethyl)-2-[4-((S)-2,2,2-trifluoro-1-methyl-ethoxy)-phenyl]-2-aza-spiro[4.5]decan-1-one], 400 nM; that for `C[C@H](Oc1ccc(N2CC[C@]3(CC[C@@](O)(COCC(F)(F)F)CC3)C2=O)cc1)C(F)(F)F` [Example 283, (5α,8α)-8-Hydroxy-8-(2,2,2-trifluoro-ethoxymethyl)-2-[4-((S)-2,2,2-trifluoro-1-methyl-ethoxy)-phenyl]-2-aza-spiro[4.5]decan-1-one], 10 nM.
`C[C@@H](Oc1ccc(N2CC[C@]3(CC[C@](O)(COCC(F)(F)F)CC3)C2=O)cc1)C(F)(F)F` [Example 284, (5α,8β)-8-Hydroxy-8-(2,2,2-trifluoro-ethoxymethyl)-2-[4-((R)-2,2,2-trifluoro-1-methyl-ethoxy)-phenyl]-2-aza-spiro[4.5]decan-1-one]: the IC50 came to 360 nM.
`C[C@@H](Oc1ccc(N2CC[C@]3(CC[C@@](O)(COCC(F)(F)F)CC3)C2=O)cc1)C(F)(F)F` [Example 285, (5α,8α)-8-Hydroxy-8-(2,2,2-trifluoro-ethoxymethyl)-2-[4-((R)-2,2,2-trifluoro-1-methyl-ethoxy)-phenyl]-2-aza-spiro[4.5]decan-1-one]: the IC50 was determined as 10 nM.
As for `O=C1N(c2ccc(CC(F)(F)F)cc2)CC[C@]12CC[C@](O)(COCC(F)(F)F)CC2` [Example 286, (5α,8β)-8-Hydroxy-8-(2,2,2-trifluoro-ethoxymethyl)-2-[4-(2,2,2-trifluoro-ethyl)-phenyl]-2-aza-spiro[4.5]decan-1-one], the IC50 turned out to be 190 nM.
As for `O=C1N(c2ccc(CC(F)(F)F)cc2)CC[C@]12CC[C@@](O)(COCC(F)(F)F)CC2` [Example 287, (5α,8α)-8-Hydroxy-8-(2,2,2-trifluoro-ethoxymethyl)-2-[4-(2,2,2-trifluoro-ethyl)-phenyl]-2-aza-spiro[4.5]decan-1-one], the figure is 10 nM.

(Values after patent US8440710B2, “HSL inhibitors useful in the treatment of diabetes” (Hoffmann-La Roche Inc., priority 2009, dated 2013).)
